One data set addresses T1, ACE C-domain (Homo sapiens, UniProt P12821).
T1 construct: with a dissociation constant more than 3 orders of magnitude lower for the ACE C-domain than the N-domain
To be noted: lower for C-domain; cited from earlier work.

For data set [1] the following is noted: cited from earlier work.
The subject of the next data set is cytokine expression. Briefly: cytokine expression with ACE inhibitor, ACE7 (N-terminus KO) vs wild type (FIG. 11). Format: cell-based, mouse. To be noted: ACE7 (N-terminus KO) and wild type. Here is the method:
(§1) To obtain large numbers of macrophages, N-KO, C-KO and WT mice were injected intraperitoneally with thioglycolate. After four days, cells were collected, washed and counted. Aliquots of 1×10^6 cells were adhered in 24 well plates. After 2 hrs, non-adherent cells were removed and the plates were visually evaluated to verify that wells contained nearly identical numbers of adherent cells. Media containing 1 ug/ml of LPS (a model activator of macrophages) was then added. After 24 hrs, supernatants were collected and the concentrations of TNF-α and IL-12p40 (one of the 2 proteins comprising IL-12) were determined by ELISA (eBioscience). However, there was a marked difference in cytokine expression profile; macrophages derived from N-KO mice producing far more TNF- a and IL-12p40 than either C-KO or WT mice (p values for TNF-α: N-KO vs. C-KO or WT, p<0.001; p values for IL12p40: N-KO vs. C-KO or WT, p<0.02). Further, there was a clear trend of macrophages from C-KO mice producing less cytokines than wild-type cells (TNF- a: C-KO vs. WT, p<0.07; IL12p40: C-KO vs. WT, p<0.02). Thus, in the absence of ACE N-terminal catalytic activity, TNF-α and IL-12 cytokine expression was increased. In the absence of C-terminal catalytic activity, there is a strong reduction of production of these cytokines. […]

The subject of another data set is TNF. Briefly: TNF with AT1R inhibitor, ACE7 (N-terminus KO) vs wild type (FIG. 12). The format is cell-based, mouse. As to conditions: ACE7 (N-terminus KO) and wild type. Here is the method: FIG. 12 depicts, in accordance with an embodiment of the present invention, AT1R inhibitor losartan can lower TNF, but cannot eliminate the difference between ACE7 (N-terminus KO) and wild type.
as §1, with “increased.” for “increased. In the absence of C-terminal catalytic activity, there is a strong reduction of production of these cytokines.”

In data set [2] the target is AcSDAcKP (synthetic ACE substrate). Put plainly: cell-based or functional assay.
The target in data set [3] is Hip-His-Leu (HHL) (synthetic ACE substrate). Briefly: cell-based or functional assay.
The test system of data set [4] is 2-kidney, 1-clip hypertensive rats. As to conditions: osmotic mini-pump; cited from earlier work.
For a further data set, the system named is macrophages. To be noted: cited from earlier work.
Data set [5] deals with aldosterone-salt hypertension. To be noted: cited from earlier work.
In data set [6] the test system is angiotensin II-induced hypertension. To be noted: secondary to angiotensin II-induced hypertension; cited from earlier work.
The next data set has as its system cardiac fibroblasts. As to conditions: cited from earlier work.
The next data set relates to Smad2. As to conditions: cited from earlier work.

Ends that are not written are not given here.

T1 sequence (P12821 643-1222 limits assumed): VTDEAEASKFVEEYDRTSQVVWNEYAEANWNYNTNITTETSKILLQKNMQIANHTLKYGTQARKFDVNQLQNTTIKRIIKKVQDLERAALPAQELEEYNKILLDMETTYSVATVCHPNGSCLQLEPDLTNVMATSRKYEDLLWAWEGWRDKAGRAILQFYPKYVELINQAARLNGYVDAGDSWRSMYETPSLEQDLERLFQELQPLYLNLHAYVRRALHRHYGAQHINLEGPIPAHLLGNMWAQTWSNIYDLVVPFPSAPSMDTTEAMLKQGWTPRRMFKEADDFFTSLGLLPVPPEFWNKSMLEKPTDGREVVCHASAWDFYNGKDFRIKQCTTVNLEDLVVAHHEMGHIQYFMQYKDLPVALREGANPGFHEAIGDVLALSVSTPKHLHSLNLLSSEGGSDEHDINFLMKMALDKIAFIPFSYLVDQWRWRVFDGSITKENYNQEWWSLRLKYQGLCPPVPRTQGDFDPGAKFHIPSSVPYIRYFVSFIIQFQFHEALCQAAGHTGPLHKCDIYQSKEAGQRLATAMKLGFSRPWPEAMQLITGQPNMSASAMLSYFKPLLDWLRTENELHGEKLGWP

On to `O=C(NC(Cc1ccccc1)P(=O)(O)C1CCCC1C(=O)NC(Cc1c[nH]c2ccccc12)C(=O)O)OCc1ccccc1` (centres unmarked) [RXPA 380], for which the “dissociation constant for the ACE C-domain relative to the N-domain” value at ACE C-domain is recorded as “more than 3 orders of magnitude”. In addition, the effectiveness in mice entry in [1] (mice) is listed as “effective”. Also, the stability in vivo entry in data set [1] (mouse, in vivo) is “stable”.

`NCCCC[C@H](N[C@@H](CCc1ccccc1)C(=O)O)C(=O)N1CCC[C@H]1C(=O)O` [lisinopril]: in the data set with cytokine expression, the cytokine expression entry is on record as “can lower cytokine expression”.

`CCCCc1nc(Cl)c(CO)n1Cc1ccc(-c2ccccc2-c2nn[nH]n2)cc1` [losartan]: the TNF entry in the data set with TNF was “can lower TNF”.

Consider “ACE of ACE 7/7 (N-KO) mice: mouse angiotensin converting enzyme with the N-terminal catalytic site inactivated (HEMGH motif converted to KEMGK) (from UniProt P09470 35-1237)”, for which the catalytic activity of plasma (cleavage efficiency against wild-type mice) (% of wild-type efficiency) in data set [2] was determined as 3.

For “ACE of ACE 13/13 (C-KO) mice: mouse angiotensin converting enzyme with the C-terminal catalytic site inactivated (histidines of HEMGH mutated to lysines) (from UniProt P09470 35-1237)”, in data set [3], the catalytic activity of plasma (hydrolysis efficiency against wild-type mice) (% of wild-type efficiency) stood at 18.

Turning to “Acetyl-SerAspLysPro (Ac-SDKP) [AcSDKP, tetrapeptide cleaved from thymosin-β4 by prolyl oligopeptidase]”, in data set [4], the blood pressure entry was “no effect on blood pressure” and the “development of fibrosis in the heart” value was “prevented the development of fibrosis in the heart”. Moreover, in the data set on macrophages, the “macrophage production of TNF” value is recorded as “reducing macrophage production of TNF”. Besides, in [5], the “collagen deposition and cell proliferation in the heart and kidney” value was “prevented increased collagen deposition and cell proliferation”. The aortic fibrosis entry in data set [6] is listed as “reduced aortic fibrosis”. Also, the “growth of cardiac fibroblasts” value with cardiac fibroblasts is “inhibits the growth of cardiac fibroblasts”. Also, the “TGF-β1 stimulated phosphorylation of Smad2” value with Smad2 is on record as “inhibits”.
